Test results: PubChem BioAssay AID463199 (Broad Institute, 2010)
Calls of active or inactive are those of the source.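 Rule for the calls: active = AC50, the dose giving half-maximal effect, exceeds a fixed cutoff for a compound that rescues yeast growth under heat; inactive = the rest, inconclusive results apart.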

These compounds were tested on S. cerevisiae Burl-1 ts mutant growth, BacTiter-Glo, 38.5C 24 h (assay: restored growth of temperature-sensitive Burl-1 yeast – whole organism, S. cerevisiae, Burl-1 ts mutant, luminescence, counter-screen for SUMOylation pathway inhibitor project, dose response (AID 463199)).
In the case of Cc1cccc(OCCN2CSC(=S)N(C)C2)c1, the AC50 is reported as 31.6 µM.
O=C(CSc1nc(O)cc(=O)n1-c1ccccc1)NC1CCCCC1 was tested, and the AC50 was > 42 µM (inactive).
In the case of Cc1c(C)c2c(c(C)c1O)CCC(C)(C(=O)O)O2 (centres undefined), the AC50 is reported as > 42 µM (inactive).
With COC(=O)c1sc(NC(=O)c2ccc(Cn3cc(Cl)cn3)o2)c(C#N)c1C the AC50 was > 42 µM (inactive).
In the case of COc1cc2c(cc1OC)C(c1ccc(SC)cc1)CC(=O)N2 (centres undefined), the AC50 is reported as > 42 µM (inactive).
For COc1cc(/C=N/n2c(C3CCCCC3)n[nH]c2=S)cc(OC)c1O, the AC50 was > 42 µM (inactive).
Clc1ccccc1-c1ccc2ncnc(NCc3cccs3)c2c1 was tested, and the AC50 was > 42 µM (inactive).
For COCCCNC(=O)c1cc(C(=O)c2c(-c3c(Cl)cccc3Cl)noc2C)c[nH]1, the AC50 was > 42 µM (inactive).
In the case of Cc1noc(C)c1S(=O)(=O)N1CCCC(C(=O)NCC2CCCO2)C1 (centres undefined), the AC50 is reported as > 42 µM (inactive).
For O=C(CC(c1ccccc1)c1ccccc1O)NCCN1CCOCC1 (centres undefined), the AC50 was > 42 µM (inactive).
In the case of CCOC(=O)CCN(c1ccccc1)S(=O)(=O)c1ccc(-c2ccc(=O)[nH]n2)s1, the AC50 is reported as > 42 µM (inactive).
C/C(=N\N=C(c1ccccc1)c1ccccc1)c1ccco1 was tested, and the AC50 was > 42 µM (inactive).
With CSCCC(NC(=O)c1ccco1)C(=O)N1CCN(Cc2ccccc2)CC1 (centres undefined) the AC50 was > 42 µM (inactive).
In the case of C/C(=N\N=C(/N)SC1CC(=O)N(c2cccc(Cl)c2)C1=O)c1cccs1 (centres undefined), the AC50 is reported as > 42 µM (inactive).
In the case of [N-]=[N+]=NCCN1CCC(O)CCC1=O (centres undefined), the AC50 is reported as > 42 µM (inactive).
CCCCn1c(N)c(N(CC(C)C)C(=O)c2cc(-c3ccc(F)cc3)nc3ccccc23)c(=O)[nH]c1=O was tested, and the AC50 was > 42 µM (inactive).
In the case of NC(=O)C1CCCN(C(=S)Nc2cccc3ccccc23)C1 (centres undefined), the AC50 is reported as > 42 µM (inactive).
For CC1CN(S(=O)(=O)c2cccc(C(=O)N=c3sccn3C)c2)CC(C)O1 (centres undefined), the AC50 was > 42 µM (inactive).
C[C@@]12C(=O)Nc3cc(F)ccc3C(=O)N1[C@H]1c3ccccc3OC[C@@H]1[C@@H]2c1ccccc1 was tested, and the AC50 was > 42 µM (inactive).
In the case of O=C(Oc1ccc2c(c1)OCO2)c1cccs1, the AC50 is reported as > 42 µM (inactive).
O=C(C1CCN(C2CC(=O)N(c3cccc(Cl)c3)C2=O)CC1)N1CCCC1 (centres undefined) was tested, and the AC50 was > 42 µM (inactive).
For Cc1cc(Br)ccc1NC(=O)c1cnc(N2CCN(c3ccccn3)CC2)c2ccccc12, the AC50 was > 42 µM (inactive).
For N#C/C(=C\c1cc([N+](=O)[O-])c(N2CCOCC2)cc1N1CCOCC1)c1nc2ccccc2[nH]1, the AC50 was > 42 µM (inactive).
For CSc1ccccc1-c1nc(-c2ccncc2)no1, the AC50 was > 42 µM (inactive).
With CC1CCN(CCCCOc2ccc(F)cc2)CC1 the AC50 was > 42 µM (inactive).
CC(Cc1ccc(O)c(O)c1)C(C)Cc1ccc(O)c(O)c1 (centres undefined) was tested, and the AC50 was > 42 µM (inactive).
For CN1C2CCC1CC(OC(=O)c1ccc([N+](=O)[O-])cc1)C2 (centres undefined), the AC50 was > 42 µM (inactive).
With COc1cc(C(=O)Nc2ccc3c(c2)OCCO3)ccc1-n1cnnn1 the AC50 was > 42 µM (inactive).
With CCOP(=O)(OCC)c1cc(CC)ccc1O the AC50 was > 42 µM (inactive).
In the case of COc1ccc(-c2cc(CC3(C(=O)O)CCN(C(=O)OC(C)(C)C)CC3)on2)c(OC)c1, the AC50 is reported as > 42 µM (inactive).
COc1cccc(CN(C)C(=O)C2CCC(=O)N(Cc3cccc(F)c3)C2)c1 (centres undefined) was tested, and the AC50 was > 42 µM (inactive).
CC(=O)Nc1ccc(S(=O)(=O)Nc2ccc3c(c2)C(=O)OC3)cc1 was tested, and the AC50 was > 42 µM (inactive).
In the case of N#CC1=C(N)OC2=C(C(=O)CCC2)C1C1CC=CCC1 (centres undefined), the AC50 is reported as > 42 µM (inactive).
For O=C(NC1CCCCC1)c1n[nH]c2c1CCCCC2, the AC50 was > 42 µM (inactive).
In the case of O=C(c1cc(Cl)c(=O)n(Cc2ccc(Cl)cc2)c1)N1CCOCC1, the AC50 is reported as > 42 µM (inactive).
O=S(=O)(O)c1ccc(N=NNc2ccc(Br)cc2)cc1 was tested, and the AC50 was > 42 µM (inactive).
With C/C(=N\NC(=O)c1ccc(Cl)cc1)c1cccnc1 the AC50 was > 42 µM (inactive).
For COc1ccc(C(=O)O/N=C(\N)c2ccccc2)cc1OC, the AC50 was > 42 µM (inactive).
COc1ccc(NC(=S)NC(=O)C2CCC2)cc1 was tested, and the AC50 was > 42 µM (inactive).
With O=C(Nc1cccnc1Cl)c1cc2ccccc2o1 the AC50 was > 42 µM (inactive).
Cc1nn(C(C)(C)C)c(OC(=O)c2ccc3c(c2)OCO3)c1S(=O)(=O)c1ccccc1 was tested, and the AC50 was > 42 µM (inactive).
In the case of O=C(COC(=O)c1ccc([N+](=O)[O-])o1)Nc1ncc(Cl)cc1Cl, the AC50 is reported as > 42 µM (inactive).
O=C(C[n+]1ccc(C(=O)N/N=C/c2ccc(Cl)cc2Cl)cc1)c1ccccc1 was tested, and the AC50 was > 42 µM (inactive).
In the case of COC(=O)c1cccc(NC(=O)c2ccc[n+]([O-])c2)c1, the AC50 is reported as > 42 µM (inactive).
Cc1sc2ncnc(Nc3ccccc3)c2c1C was tested, and the AC50 was > 42 µM (inactive).
CC1C(=O)CC(c2ccccc2)N(C)C1c1ccccc1 (centres undefined) was tested, and the AC50 was > 42 µM (inactive).
In the case of Cc1ccccc1-c1nnc(SCc2ccc(F)cc2)o1, the AC50 is reported as > 42 µM (inactive).
With O=C1NC(c2ccccc2)C(C(=O)c2cccs2)C(O)(C(F)(F)F)N1 (centres undefined) the AC50 was > 42 µM (inactive).
In the case of Cc1ccc(-n2c(C)cc(/C=N/NC(=O)c3ccncc3)c2C)cc1C, the AC50 is reported as > 42 µM (inactive).
